4 molecules from ChEMBL document CHEMBL4007384, “Synthesis and optimization of furano[3,2-d]pyrimidines as selective spleen tyrosine kinase (Syk) inhibitors” (Bioorg Med Chem Lett, 2016) can be followed below.

One assay addresses T1, Activin receptor type-1 (Homo sapiens, UniProt Q04771).
T1 sequence (Q04771 whole entry): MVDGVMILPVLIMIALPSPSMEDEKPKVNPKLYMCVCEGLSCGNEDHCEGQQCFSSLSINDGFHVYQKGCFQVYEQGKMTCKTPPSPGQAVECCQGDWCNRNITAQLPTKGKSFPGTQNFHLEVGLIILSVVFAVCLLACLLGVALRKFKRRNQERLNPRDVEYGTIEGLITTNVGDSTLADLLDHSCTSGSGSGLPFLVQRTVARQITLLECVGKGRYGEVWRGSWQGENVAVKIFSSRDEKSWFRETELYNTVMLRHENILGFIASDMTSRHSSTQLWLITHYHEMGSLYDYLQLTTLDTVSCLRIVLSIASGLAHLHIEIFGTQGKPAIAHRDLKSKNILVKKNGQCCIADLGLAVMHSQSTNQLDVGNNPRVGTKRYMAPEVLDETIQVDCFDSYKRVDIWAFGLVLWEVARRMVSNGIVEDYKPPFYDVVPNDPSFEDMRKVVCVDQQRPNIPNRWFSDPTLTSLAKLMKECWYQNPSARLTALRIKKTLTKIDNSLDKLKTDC
Briefly: Inhibition of ACVR1 (unknown origin) after 60 mins by TR-FRET assay. A general note: TR-FRET usually uses a lanthanide donor and a delayed reading to cut background.

For assay [1], the target named is AMP-activated protein kinase, AMPK. The assay is described as follows: Inhibition of AMPK (unknown origin) after 60 mins by TR-FRET assay. On the set-up: species or system Homo sapiens.
For another assay, the target named is Aurora kinase B (Homo sapiens, UniProt Q96GD4). The assay is described as follows: Inhibition of AURKB (unknown origin) after 60 mins by TR-FRET assay.
Sequence of Aurora kinase B (Q96GD4 whole entry): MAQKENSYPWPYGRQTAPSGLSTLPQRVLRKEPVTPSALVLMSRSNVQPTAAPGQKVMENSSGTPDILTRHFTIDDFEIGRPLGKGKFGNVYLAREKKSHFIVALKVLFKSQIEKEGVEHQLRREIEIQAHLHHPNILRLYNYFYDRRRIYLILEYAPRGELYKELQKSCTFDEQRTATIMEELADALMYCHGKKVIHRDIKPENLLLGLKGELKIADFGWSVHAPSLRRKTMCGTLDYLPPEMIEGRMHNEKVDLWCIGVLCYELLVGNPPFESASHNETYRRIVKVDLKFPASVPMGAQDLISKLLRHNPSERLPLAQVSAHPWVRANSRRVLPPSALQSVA
The target of assay [2] is Tyrosine-protein kinase BTK (Homo sapiens, UniProt Q06187). The assay is described as follows: Inhibition of BTK (unknown origin) after 60 mins by TR-FRET assay.
For assay [3], the target named is Calcium/calmodulin-dependent protein kinase type 1D (Homo sapiens, UniProt Q8IU85). Briefly: Inhibition of human CAMK1D (unknown origin) after 60 mins by TR-FRET assay.
Sequence of Calcium/calmodulin-dependent protein kinase type 1D (Q8IU85 whole entry): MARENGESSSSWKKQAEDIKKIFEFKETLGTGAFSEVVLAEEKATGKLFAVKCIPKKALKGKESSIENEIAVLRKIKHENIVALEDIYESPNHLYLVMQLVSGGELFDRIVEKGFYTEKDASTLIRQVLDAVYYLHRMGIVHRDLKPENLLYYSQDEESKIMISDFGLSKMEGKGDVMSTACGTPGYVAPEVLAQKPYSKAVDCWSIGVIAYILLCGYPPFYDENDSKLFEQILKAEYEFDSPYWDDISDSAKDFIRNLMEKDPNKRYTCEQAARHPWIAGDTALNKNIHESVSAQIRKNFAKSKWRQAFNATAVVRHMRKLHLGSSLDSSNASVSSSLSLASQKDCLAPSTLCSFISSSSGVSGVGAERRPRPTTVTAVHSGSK
Assay [4] has as its target Dual specificity protein kinase CLK2 (Homo sapiens, UniProt P49760). Briefly: Inhibition of CLK2 (unknown origin) after 60 mins by TR-FRET assay.
The target in assay [5] is Vascular endothelial growth factor receptor 1 (Homo sapiens, UniProt P17948). The assay is described as follows: Inhibition of Flt1(unknown origin) after 60 mins by TR-FRET assay.
Sequence of Vascular endothelial growth factor receptor 1 (P17948 whole entry): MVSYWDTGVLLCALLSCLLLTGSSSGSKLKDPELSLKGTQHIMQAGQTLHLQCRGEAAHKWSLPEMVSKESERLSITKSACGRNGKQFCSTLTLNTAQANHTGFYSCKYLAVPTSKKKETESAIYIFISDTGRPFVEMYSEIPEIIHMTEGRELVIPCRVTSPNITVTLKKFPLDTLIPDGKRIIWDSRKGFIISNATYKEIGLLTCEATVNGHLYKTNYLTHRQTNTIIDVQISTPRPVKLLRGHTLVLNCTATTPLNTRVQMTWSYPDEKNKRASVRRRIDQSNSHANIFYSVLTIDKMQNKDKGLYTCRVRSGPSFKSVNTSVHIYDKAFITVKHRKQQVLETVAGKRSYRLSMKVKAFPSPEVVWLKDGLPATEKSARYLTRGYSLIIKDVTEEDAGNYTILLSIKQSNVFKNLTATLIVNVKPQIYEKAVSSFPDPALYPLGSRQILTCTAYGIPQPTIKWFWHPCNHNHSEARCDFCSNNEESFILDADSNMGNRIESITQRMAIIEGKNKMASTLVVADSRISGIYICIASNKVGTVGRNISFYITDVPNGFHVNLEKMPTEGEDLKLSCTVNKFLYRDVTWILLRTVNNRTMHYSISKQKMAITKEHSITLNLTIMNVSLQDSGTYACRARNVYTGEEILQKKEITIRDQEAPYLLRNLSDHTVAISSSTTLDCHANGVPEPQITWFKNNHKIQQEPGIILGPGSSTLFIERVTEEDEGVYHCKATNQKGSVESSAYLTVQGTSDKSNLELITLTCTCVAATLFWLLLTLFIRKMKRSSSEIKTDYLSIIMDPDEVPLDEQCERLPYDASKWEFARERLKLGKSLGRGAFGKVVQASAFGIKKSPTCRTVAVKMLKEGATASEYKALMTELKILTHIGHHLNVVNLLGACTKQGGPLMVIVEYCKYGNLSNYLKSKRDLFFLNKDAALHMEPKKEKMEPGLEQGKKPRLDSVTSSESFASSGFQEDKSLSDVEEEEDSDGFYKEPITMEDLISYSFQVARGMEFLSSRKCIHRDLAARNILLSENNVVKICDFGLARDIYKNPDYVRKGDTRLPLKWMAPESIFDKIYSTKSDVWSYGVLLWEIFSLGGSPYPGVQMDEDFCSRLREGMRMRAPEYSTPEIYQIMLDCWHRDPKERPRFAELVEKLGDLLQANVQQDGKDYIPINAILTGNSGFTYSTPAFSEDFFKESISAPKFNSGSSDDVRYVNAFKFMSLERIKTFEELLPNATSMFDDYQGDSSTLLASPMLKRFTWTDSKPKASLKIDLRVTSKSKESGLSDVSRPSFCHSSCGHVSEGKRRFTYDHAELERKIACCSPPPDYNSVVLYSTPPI
The target in assay [6] is T2, Inhibitor of nuclear factor kappa-B kinase subunit epsilon (Homo sapiens, UniProt Q14164).
T2 sequence (Q14164 whole entry): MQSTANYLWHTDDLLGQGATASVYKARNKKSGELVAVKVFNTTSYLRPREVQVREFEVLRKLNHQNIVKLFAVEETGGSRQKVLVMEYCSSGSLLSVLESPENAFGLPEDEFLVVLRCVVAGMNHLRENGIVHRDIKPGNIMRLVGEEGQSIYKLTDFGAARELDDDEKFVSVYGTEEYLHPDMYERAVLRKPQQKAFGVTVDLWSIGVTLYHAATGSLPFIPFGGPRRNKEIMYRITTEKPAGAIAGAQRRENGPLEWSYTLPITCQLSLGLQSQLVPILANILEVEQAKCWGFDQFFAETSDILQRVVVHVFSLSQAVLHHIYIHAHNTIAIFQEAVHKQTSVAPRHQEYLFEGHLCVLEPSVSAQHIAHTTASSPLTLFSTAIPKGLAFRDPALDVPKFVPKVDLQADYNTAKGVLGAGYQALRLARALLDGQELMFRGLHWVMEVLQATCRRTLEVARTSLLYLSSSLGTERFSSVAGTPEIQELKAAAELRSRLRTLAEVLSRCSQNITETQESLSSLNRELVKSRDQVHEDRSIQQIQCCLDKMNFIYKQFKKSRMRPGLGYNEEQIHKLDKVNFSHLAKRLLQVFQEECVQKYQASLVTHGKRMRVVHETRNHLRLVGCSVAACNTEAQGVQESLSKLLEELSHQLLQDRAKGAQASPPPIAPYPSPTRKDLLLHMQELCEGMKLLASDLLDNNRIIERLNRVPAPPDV
The assay is described as follows: Inhibition of IKKE (unknown origin) after 60 mins by TR-FRET assay.

Assay [7] deals with Mitogen-activated protein kinase kinase kinase kinase 4 (Homo sapiens, UniProt O95819). Briefly: Inhibition of MAP4K4 (unknown origin) after 60 mins by TR-FRET assay.
Sequence of Mitogen-activated protein kinase kinase kinase kinase 4 (O95819 whole entry): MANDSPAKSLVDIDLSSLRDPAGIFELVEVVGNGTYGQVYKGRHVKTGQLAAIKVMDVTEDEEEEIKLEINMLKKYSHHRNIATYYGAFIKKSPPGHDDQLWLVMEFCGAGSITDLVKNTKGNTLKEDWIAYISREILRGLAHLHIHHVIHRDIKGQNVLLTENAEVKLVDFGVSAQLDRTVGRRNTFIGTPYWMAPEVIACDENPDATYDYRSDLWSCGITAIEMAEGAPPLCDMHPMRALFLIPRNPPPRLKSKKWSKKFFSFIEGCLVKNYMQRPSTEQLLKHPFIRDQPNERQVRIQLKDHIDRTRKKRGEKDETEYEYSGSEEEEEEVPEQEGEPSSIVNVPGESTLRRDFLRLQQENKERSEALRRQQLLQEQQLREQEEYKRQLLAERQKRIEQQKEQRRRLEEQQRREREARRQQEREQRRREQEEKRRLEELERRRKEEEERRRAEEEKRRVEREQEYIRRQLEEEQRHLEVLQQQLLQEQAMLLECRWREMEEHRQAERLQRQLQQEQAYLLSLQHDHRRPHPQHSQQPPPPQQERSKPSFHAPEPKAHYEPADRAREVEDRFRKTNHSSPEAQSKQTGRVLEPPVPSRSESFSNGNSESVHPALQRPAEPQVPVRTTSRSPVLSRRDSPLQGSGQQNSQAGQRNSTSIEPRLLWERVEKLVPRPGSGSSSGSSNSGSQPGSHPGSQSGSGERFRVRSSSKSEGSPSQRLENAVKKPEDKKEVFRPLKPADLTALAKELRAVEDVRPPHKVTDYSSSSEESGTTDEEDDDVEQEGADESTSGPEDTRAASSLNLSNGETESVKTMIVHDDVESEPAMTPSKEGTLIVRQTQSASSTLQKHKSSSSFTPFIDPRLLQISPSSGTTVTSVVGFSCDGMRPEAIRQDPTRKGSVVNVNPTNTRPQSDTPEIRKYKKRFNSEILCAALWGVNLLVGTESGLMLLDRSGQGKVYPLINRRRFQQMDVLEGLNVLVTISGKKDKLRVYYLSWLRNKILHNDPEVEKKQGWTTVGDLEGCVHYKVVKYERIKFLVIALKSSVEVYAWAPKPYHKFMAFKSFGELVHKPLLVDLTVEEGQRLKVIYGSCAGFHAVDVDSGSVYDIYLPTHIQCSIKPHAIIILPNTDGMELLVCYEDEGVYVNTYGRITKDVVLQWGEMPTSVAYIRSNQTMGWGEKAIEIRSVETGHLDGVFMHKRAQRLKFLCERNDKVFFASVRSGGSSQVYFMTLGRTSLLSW
In assay [8] the target is Platelet-derived growth factor receptor beta (Homo sapiens, UniProt P09619). The assay is described as follows: Inhibition of PDGFRB (unknown origin) after 60 mins by TR-FRET assay.
Assay [9] concerns the target Ribosomal protein S6 kinase alpha-3 (Homo sapiens, UniProt P51812). The assay is described as follows: Inhibition of RSK2 (unknown origin) after 60 mins by TR-FRET assay.
The target in the next assay is Activated CDC42 kinase 1 (Homo sapiens, UniProt Q07912). The assay is described as follows: Inhibition of TNK2 (unknown origin) after 60 mins by TR-FRET assay.
Sequence of Activated CDC42 kinase 1 (Q07912 whole entry): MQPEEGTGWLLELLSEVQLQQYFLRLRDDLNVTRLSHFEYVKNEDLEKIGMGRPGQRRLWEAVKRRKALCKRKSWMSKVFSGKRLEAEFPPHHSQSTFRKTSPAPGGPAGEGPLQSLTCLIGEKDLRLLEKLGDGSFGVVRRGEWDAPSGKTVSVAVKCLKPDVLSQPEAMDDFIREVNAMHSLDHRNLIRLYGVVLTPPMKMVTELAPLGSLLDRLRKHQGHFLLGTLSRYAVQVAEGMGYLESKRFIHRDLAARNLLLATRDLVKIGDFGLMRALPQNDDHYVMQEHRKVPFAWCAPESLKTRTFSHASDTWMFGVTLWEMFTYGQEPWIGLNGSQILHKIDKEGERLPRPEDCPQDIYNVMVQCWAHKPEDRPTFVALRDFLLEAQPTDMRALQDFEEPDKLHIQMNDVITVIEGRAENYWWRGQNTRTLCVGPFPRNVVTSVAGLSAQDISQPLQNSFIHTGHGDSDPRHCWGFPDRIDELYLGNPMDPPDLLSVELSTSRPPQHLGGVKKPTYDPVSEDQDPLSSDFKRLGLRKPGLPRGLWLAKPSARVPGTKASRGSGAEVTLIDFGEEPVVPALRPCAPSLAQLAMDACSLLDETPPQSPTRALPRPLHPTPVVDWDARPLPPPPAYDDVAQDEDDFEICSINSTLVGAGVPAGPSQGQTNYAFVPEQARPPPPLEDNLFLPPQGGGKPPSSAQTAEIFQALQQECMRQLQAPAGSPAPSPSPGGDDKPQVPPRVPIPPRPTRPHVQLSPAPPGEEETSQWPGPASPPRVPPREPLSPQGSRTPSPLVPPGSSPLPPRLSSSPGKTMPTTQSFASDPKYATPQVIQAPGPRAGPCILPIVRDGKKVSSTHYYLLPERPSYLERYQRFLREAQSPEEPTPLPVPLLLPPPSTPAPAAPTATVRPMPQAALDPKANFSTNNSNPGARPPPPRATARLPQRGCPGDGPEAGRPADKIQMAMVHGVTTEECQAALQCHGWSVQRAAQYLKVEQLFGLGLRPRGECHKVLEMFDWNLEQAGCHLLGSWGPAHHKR
For assay [10], the target named is High affinity nerve growth factor receptor (Homo sapiens, UniProt P04629). The assay is described as follows: Inhibition of TRKA (unknown origin) after 60 mins by TR-FRET assay.
For assay [11], the target named is T3, Tyrosine-protein kinase receptor TYRO3 (Homo sapiens, UniProt Q06418).
T3 sequence (Q06418 whole entry): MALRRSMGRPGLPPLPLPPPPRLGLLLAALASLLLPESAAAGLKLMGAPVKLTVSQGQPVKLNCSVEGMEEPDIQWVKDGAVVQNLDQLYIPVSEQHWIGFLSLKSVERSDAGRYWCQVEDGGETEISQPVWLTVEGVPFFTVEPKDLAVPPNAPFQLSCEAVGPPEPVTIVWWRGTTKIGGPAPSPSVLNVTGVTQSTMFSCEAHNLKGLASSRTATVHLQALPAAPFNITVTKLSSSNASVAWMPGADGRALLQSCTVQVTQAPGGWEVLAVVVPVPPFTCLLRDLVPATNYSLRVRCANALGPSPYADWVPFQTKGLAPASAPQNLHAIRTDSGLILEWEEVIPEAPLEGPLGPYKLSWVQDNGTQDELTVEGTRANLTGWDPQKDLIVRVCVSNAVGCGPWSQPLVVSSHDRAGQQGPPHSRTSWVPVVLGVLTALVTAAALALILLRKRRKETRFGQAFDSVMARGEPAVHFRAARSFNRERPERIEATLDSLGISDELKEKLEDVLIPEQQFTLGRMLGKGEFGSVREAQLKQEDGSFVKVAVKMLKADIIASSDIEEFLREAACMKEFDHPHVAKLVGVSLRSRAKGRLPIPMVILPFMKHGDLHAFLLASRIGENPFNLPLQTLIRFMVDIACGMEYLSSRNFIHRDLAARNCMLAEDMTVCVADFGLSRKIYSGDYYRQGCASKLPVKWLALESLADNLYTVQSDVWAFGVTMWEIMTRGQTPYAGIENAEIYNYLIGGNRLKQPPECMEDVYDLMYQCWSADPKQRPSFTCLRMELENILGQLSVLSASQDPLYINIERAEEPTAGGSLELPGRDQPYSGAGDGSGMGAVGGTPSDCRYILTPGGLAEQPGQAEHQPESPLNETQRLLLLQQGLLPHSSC
Briefly: Inhibition of TYRO3 (unknown origin) after 60 mins by TR-FRET assay.

The target in assay [12] is Tyrosine-protein kinase SYK (Homo sapiens, UniProt P43405).
Description: Inhibition of Syk (unknown origin) after 60 mins by TR-FRET assay

Each structure is given as a SMILES string.

Sequence of Dual specificity protein kinase CLK2 (P49760 whole entry): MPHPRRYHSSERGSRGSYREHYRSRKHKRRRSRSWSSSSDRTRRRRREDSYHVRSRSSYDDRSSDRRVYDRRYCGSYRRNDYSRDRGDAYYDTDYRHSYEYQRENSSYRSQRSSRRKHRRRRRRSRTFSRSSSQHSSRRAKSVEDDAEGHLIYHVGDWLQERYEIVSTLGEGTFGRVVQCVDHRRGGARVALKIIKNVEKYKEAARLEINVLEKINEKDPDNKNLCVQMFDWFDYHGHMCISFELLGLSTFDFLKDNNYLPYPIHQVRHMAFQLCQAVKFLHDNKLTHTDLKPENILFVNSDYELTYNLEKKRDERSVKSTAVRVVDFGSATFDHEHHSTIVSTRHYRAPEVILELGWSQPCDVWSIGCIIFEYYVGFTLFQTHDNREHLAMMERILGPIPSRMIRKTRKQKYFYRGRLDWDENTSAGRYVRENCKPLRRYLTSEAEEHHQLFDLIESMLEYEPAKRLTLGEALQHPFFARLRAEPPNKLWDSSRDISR

The IC50 is the point on the concentration scale where inhibition reaches its midpoint. `CC1(C)OCC(=O)Nc2cc(Nc3nc(NCC(F)(F)F)c4occc4n3)ccc21`: the IC50 against Activin receptor type-1 was > 10 µM; in [1], > 10 µM; against Aurora kinase B, > 10 µM; in [2], 5.02 µM; in [3] it was > 10 µM; in [4], > 10 µM. In addition, the IC50 in [5] was 9.13 µM; in [6] it was 3.43 µM; in [7], > 10 µM; in assay [8] it was 5.19 µM; in [9] it was > 10 µM; on Activated CDC42 kinase 1 it was 1330 nM. For the same molecule, the figures for the IC50 in assay [10], in assay [11] and in [12] were 5.4 µM, > 10 µM and 9 nM, respectively.

`FC(F)(F)CNc1nc(Nc2ccc(N3CCOCC3)c(Cl)c2)nc2ccoc12`: the IC50 (on Activin receptor type-1; in assay [1]; against Aurora kinase B; in assay [2]; in assay [3]; in assay [4]) was > 10 µM each time. Besides, the IC50 in assay [5] was > 10 µM; in [6] it was > 10 µM; in assay [7], > 10 µM; in [8] it was > 10 µM; in assay [9] it was > 10 µM; against Activated CDC42 kinase 1, 4020 nM. In addition, the IC50 was > 10 µM in assay [10], > 10 µM in [11] and 69 nM in assay [12].

With `FC(F)(F)CNc1nc(Nc2ccc3cn[nH]c3c2)nc2ccoc12`, the concentration for half-maximal inhibition (IC50) against Activin receptor type-1 was > 10 µM; in assay [1], > 10 µM; at Aurora kinase B, > 10 µM; in assay [2], > 10 µM; in assay [3], > 10 µM; in [4] it was 6.44 µM. For the same molecule, the IC50 in assay [5] was > 10 µM; in [6], > 10 µM; in [7], > 10 µM; in assay [8], > 10 µM; in assay [9], 9.81 µM; at Activated CDC42 kinase 1, 3460 nM. Further, the IC50 in assay [10] was > 10 µM; in assay [11], 3.21 µM; in [12] it was 97 nM.

As for `Cc1n[nH]c2cc(Nc3nc(NC4CC4)c4occc4n3)ccc12`, the IC50 (against Activin receptor type-1; in assay [1]; on Aurora kinase B; in assay [2]; in [3]; in assay [4]) was > 10 µM throughout. The 50% inhibitory concentration (IC50) was > 10 µM in [5]; > 10 µM in assay [6]; 9.43 µM in assay [7]; > 10 µM in assay [8]; 1320 nM at Activated CDC42 kinase 1; > 10 µM in assay [10]. In assay [11], this molecule displayed an IC50 of 4.14 µM.
